Source: patent US20250332173A1, “COMPOUNDS AND METHODS FOR MODULATING NUCLEIC ACID SPLICING” (REMIX THERAPEUTICS INC., priority 2021, published 2025)

Tests used:
Type in all cases: cell-based, human
Target C [1] = assay: HiBiT protein abundance assay, Target C (Promega Nano-Glo HiBiT Lytic Detection System, knock-in K562 cell line); settings: Homo sapiens, K562, 24 h, HiBiT K562 cell line, 24 hours, top dose 10 μM; read-out: Effect on protein abundance, Target C (IC50 category)
Outline: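 HiBiT knock-in K562 cells (10,000/well) were treated for 24 h at 37 °C with a 10-point 3-fold dilution series, top final concentration 10 μM, DMSO ≤0.25%. Lytic HiBiT luminescence was read, normalized to unmodified K562 and DMSO-treated controls, and IC50 was interpolated from a four-parameter logistic fit.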

Target C [2] = assay: RT-qPCR splicing assay panel, Target C canonical junction (CJ) mRNA; settings: Homo sapiens; Table 5 panel; canonical junction qPCR; compound concentration having 50% response in CJ decrease; read-out: Target C IC50 (decrease in CJ mRNA levels)
Outline: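 K562/A673 cells, 11-pt 3-fold compound titration from 10 uM final, DMSO ≤0.25%, 24 h 37 °C 5% CO2; lyse (DNase I or Igepal/Tris buffer pH 7.4); RT-qPCR for CJ isoform vs housekeeping gene (GAPDH/GUSB/PPIA).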

HTT = assay: HiBiT protein abundance assay, HTT HiBiT K562 cell line; settings: HiBiT K562 cell line, 24 hours, top dose 10 μM; read-out: Effect on protein abundance, HTT (IC50 category)
Outline: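 Endogenous targets in K562 knock-in lines carried a HiBiT tag and were treated for 24 h at 37 °C with 10-point 3-fold dilutions (top 10 μM final, DMSO ≤0.25%). Abundance was read as lytic Nano-Glo HiBiT luminescence. IC50 came from a four-parameter logistic fit of normalized response.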

Row | SMILES | IC50 (Target C [1]) | IC50 (Target C [2]) | IC50 (HTT)
1 | Cc1cn2nc(-c3cc(O)c4c(=O)n(C5CCNC5)ccc4c3)cc(C)c2n1 (stereo not drawn) [Compound 432, 6-{2,8-dimethylimidazo[1,2-b]pyridazin-6-yl}-8-hydroxy-2-(pyrrolidin-3-yl)isoquinolin-1-one] | 1000 to 10000 nM | 1000 to 10000 nM | 1000 to 10000 nM
2 | Cn1cc2cc(-n3cnc4cc(NC5CCNCC5)ccc4c3=O)ccc2n1 [Compound 162] | > 10000 nM | – | > 10000 nM
3 | Cc1cn2nc(-c3cc(F)c4c(=O)n(C5CCN(C)CC5)ccc4c3)cc(C)c2n1 [Compound 400, 6-(2,8-dimethylimidazo[1,2-b]pyridazin-6-yl)-8-fluoro-2-(1-methylpiperidin-4-yl)isoquinolin-1(2H)-one] | < 100 nM | 100 to 1000 nM | < 100 nM
4 | Cc1cn2nc(-c3cc(F)c4c(=O)n([C@@H]5CCNC6(CC6)C5)ccc4c3)cc(C)c2n1 (single isomer, unassigned) [Compound 425] | < 100 nM | < 100 nM | < 100 nM
5 | Cc1cc(-c2ccc3c(=O)n(C4CCNC5(COC5)C4)cnc3c2)cc2cn(C)nc12 (stereo not drawn) [Compound 375] | 1000 to 10000 nM | 1000 to 10000 nM | 1000 to 10000 nM
6 | COc1cc(-c2cc(C)c3nc(C)cn3n2)cc2ccn(C3CCNCC3)c(=O)c12 [Compound 399, 6-{2,8-dimethylimidazo[1,2-b]pyridazin-6-yl}-8-methoxy-2-(piperidin-4-yl)isoquinolin-1-one] | 100 to 1000 nM | 1000 to 10000 nM | 100 to 1000 nM
7 | Cc1cn2nc(-c3cc(F)c4c(=O)n([C@H]5CCNC6(CC6)C5)ccc4c3)cc(C)c2n1 (single isomer, unassigned) [Compound 426] | < 100 nM | < 100 nM | < 100 nM
8 | Cc1cn2nc(-c3ccc4c(=O)n([C@@H]5CCNC6(CC6)C5)ncc4c3)cc(C)c2n1 (stereo in doubt) [Compound 368, 2-[(7R)-4-azaspiro[2.5]octan-7-yl]-6-{2,8-dimethylimidazo[1,2-b]pyridazin-6-yl}phthalazin-1-one] | < 100 nM | 100 to 1000 nM | < 100 nM
9 | Cc1cn2nc(-c3ccc4c(=O)n(C5CCNCC5)cc(C)c4c3)cc(C)c2n1 [Compound 381, 6-{2,8-dimethylimidazo[1,2-b]pyridazin-6-yl}-4-methyl-2-(piperidin-4-yl)isoquinolin-1-one] | 100 to 1000 nM | 1000 to 10000 nM | < 100 nM
10 | Cc1cn2nc(-c3cc(F)c4c(=O)n(C5CCNC6(CC6)C5)ccc4c3)cc(C)c2n1 (stereo not drawn) [Compound 380, 6-(2,8-dimethylimidazo[1,2-b]pyridazin-6-yl)-8-fluoro-2-(4-azaspiro[2.5]octan-7-yl)isoquinolin-1(2H)-one] | < 100 nM | < 100 nM | < 100 nM
11 | Cc1cn2c(n1)CCC(c1ccc3c(=O)n(C4CCNCC4)ccc3c1)C2 (stereo not drawn) [Compound 453, 6-{2-methyl-5H,6H,7H,8H-imidazo[1,2-a]pyridin-6-yl}-2-(piperidin-4-yl)isoquinolin-1-one] | > 10000 nM | > 10000 nM | > 10000 nM
12 | Cc1cn2nc(-c3ccc4c(=O)n([C@H]5CCNC6(CC6)C5)ncc4c3)cc(C)c2n1 [Compound 369, 2-[(7S)-4-azaspiro[2.5]octan-7-yl]-6-{2,8-dimethylimidazo[1,2-b]pyridazin-6-yl}phthalazin-1-one] | 1000 to 10000 nM | < 100 nM | 100 to 1000 nM
13 | Cn1cc2cc(-c3cc(F)c4c(=O)n(C5CCNC6(CC6)C5)ccc4c3)cc(F)c2n1 (stereo not drawn) [Compound 412] | < 100 nM | < 100 nM | < 100 nM
14 | Cc1cn2nc(-c3ccc4c(=O)n(C5CCCNC5)ccc4c3)cc(C)c2n1 (stereo in doubt) [Compound 410, 6-{2,8-dimethylimidazo[1,2-b]pyridazin-6-yl}-2-[(3S)-piperidin-3-yl]isoquinolin-1-one] | 1000 to 10000 nM | > 10000 nM | 100 to 1000 nM
15 | Cc1cn2cc(-c3cc(F)c4c(=O)n(C5CCOC5)cnc4c3)cc(C#N)c2n1 (stereo in doubt) [Compound 500, (S)-6-(5-fluoro-4-oxo-3-(tetrahydrofuran-3-yl)-3,4-dihydroquinazolin-7-yl)-2-methylimidazo[1,2-a]pyridine-8-carbonitrile] | 100 to 1000 nM | 100 to 1000 nM | 100 to 1000 nM
16 | Cc1cn2nc(-c3ccc4c(=O)n(C5CCNC6(CC6)C5)ccc4c3)cc(C)c2n1 (stereo not drawn) [Compound 384] | < 100 nM | 100 to 1000 nM | < 100 nM

Row | SMILES | IC50 (Target C [1]) | IC50 (Target C [2]) | IC50 (HTT)
17 | Cc1cn2nc(-c3cc(C)c4c(=O)n(C5CCNC6(CC6)C5)ncc4c3)cc(C)c2n1 (stereo not drawn) [Compound 423, 6-(2,8-dimethylimidazo[1,2-b]pyridazin-6-yl)-8-methyl-2-(4-azaspiro[2.5]octan-7-yl)phthalazin-1(2H)-one] | < 100 nM | 100 to 1000 nM | < 100 nM
18 | Cc1cn2cc(-c3cc(F)c4c(=O)n(C5CCNCC5)ccc4c3)cc(C#N)c2n1 [Compound 383, 6-[8-fluoro-1-oxo-2-(piperidin-4-yl)isoquinolin-6-yl]-2-methylimidazo[1,2-a]pyridine-8-carbonitrile] | 100 to 1000 nM | 1000 to 10000 nM | 100 to 1000 nM
19 | Cc1cn2cc(-c3cc(F)c4c(=O)n(C5CCNC6(CC6)C5)ccc4c3)c(O)c(C)c2n1 (stereo not drawn) [Compound 421, 2-{4-azaspiro[2.5]octan-7-yl}-8-fluoro-6-{7-hydroxy-2,8-dimethylimidazo[1,2-a]pyridin-6-yl}isoquinolin-1-one] | > 10000 nM | > 10000 nM | > 10000 nM
20 | Cc1cn2cc(-c3cc(S(C)(=O)=O)c4c(=O)n(C5CCNCC5)ccc4c3)cc(F)c2n1 [Compound 409, 6-(8-fluoro-2-methylimidazo[1,2-a]pyridin-6-yl)-8-(methylsulfonyl)-2-(piperidin-4-yl)isoquinolin-1(2H)-one] | > 10000 nM | > 10000 nM | > 10000 nM
21 | Cc1cn2cc(-c3cc(O)c4c(=O)n(C5CCNC5)ccc4c3)cc(C#N)c2n1 (stereo not drawn) [Compound 433, 6-(8-hydroxy-1-oxo-2-(pyrrolidin-3-yl)-1,2-dihydroisoquinolin-6-yl)-2-methylimidazo[1,2-a]pyridine-8-carbonitrile] | > 10000 nM | 100 to 1000 nM | > 10000 nM
22 | Cc1cn2cc(-c3cc(F)c4c(=O)n(C5CCOC5)cnc4c3)cc(C#N)c2n1 (stereo in doubt) [Compound 499, (R)-6-(5-fluoro-4-oxo-3-(tetrahydrofuran-3-yl)-3,4-dihydroquinazolin-7-yl)-2-methylimidazo[1,2-a]pyridine-8-carbonitrile] | 100 to 1000 nM | 100 to 1000 nM | 100 to 1000 nM
23 | Cn1cc2cc(-c3cc(F)c4c(=O)n(C5CCNCC5)ccc4c3)cc(C#N)c2n1 [Compound 394, 5-(8-fluoro-1-oxo-2-(piperidin-4-yl)-1,2-dihydroisoquinolin-6-yl)-2-methyl-2H-indazole-7-carbonitrile] | < 100 nM | 100 to 1000 nM | < 100 nM
24 | Cc1cn2nc(-c3cc(O)c4c(=O)n(C5CCNC5)cc(C)c4c3)cc(C)c2n1 (stereo not drawn) [Compound 462] | 1000 to 10000 nM | > 10000 nM | 1000 to 10000 nM
25 | CN1C2C=C(c3ccc4c(=O)n(-c5ccc6nn(C)cc6c5)cnc4c3)CC1CC2 (stereo not drawn) [Compound 161] | > 10000 nM | > 10000 nM | > 10000 nM
26 | Cc1cc(-c2cc(F)c3c(=O)n(C4CCNC5(CC5)C4)ccc3c2)cc2cn(C)nc12 (stereo not drawn) [Compound 415, 2-{4-azaspiro[2.5]octan-7-yl}-6-(2,7-dimethylindazol-5-yl)-8-fluoroisoquinolin-1-one] | < 100 nM | 100 to 1000 nM | < 100 nM
27 | Cc1cn2cc(-c3ccc4c(=O)n([C@@H]5CCCNC5)ccc4c3)cc(F)c2n1 (single isomer, unassigned) [Compound 403] | 1000 to 10000 nM | 1000 to 10000 nM | 1000 to 10000 nM
28 | CC(=O)c1cc(-c2cc(F)c3c(=O)n(C4CCNCC4)ccc3c2)cn2cc(C)nc12 [Compound 393, 6-{8-acetyl-2-methylimidazo[1,2-a]pyridin-6-yl}-8-fluoro-2-(piperidin-4-yl)isoquinolin-1-one 2,2,2-trifluoroacetate] | 100 to 1000 nM | 1000 to 10000 nM | 100 to 1000 nM
29 | Cc1cn2nc(-c3ccc4c(=O)n([C@H]5CCNC[C@H]5F)cnc4c3)cc(C)c2n1 [Compound 372] | 1000 to 10000 nM | 1000 to 10000 nM | 100 to 1000 nM
30 | Cc1cn2cc(-c3ccc4c(=O)n(C5CCNC5)cc(C)c4c3)cc(F)c2n1 (stereo not drawn) [Compound 441, 6-{8-fluoro-2-methylimidazo[1,2-a]pyridin-6-yl}-4-methyl-2-(pyrrolidin-3-yl)isoquinolin-1-one] | > 10000 nM | > 10000 nM | 1000 to 10000 nM
31 | Cc1cc(-c2ccc3c(=O)n(C4CCN(C)CC4)cnc3n2)cc2cn(C)nc12 [Compound 173] | > 10000 nM | – | > 10000 nM
32 | Cc1cc(-c2ccc3c(=O)n(C4CCNCC4)cnc3c2)cc2cn(C)nc12 [Compound 174] | 100 to 1000 nM | – | 100 to 1000 nM
